# Measured values published in ChEMBL document CHEMBL3885881, “DrugMatrix”.
# Species: Rattus norvegicus
# Assay: DrugMatrix - Regimen: Daily Repeat
# Type: toxicity, organism-based, Sprague-Dawley
# Parameters: regimen Daily Repeat, gender Male, age 6-8 weeks
# Details: in vivo, po, route oral GAVAGE, vehicle .5 % CMC; for BASOPHIL / EOSINOPHIL / ERYTHROCYTE COUNT / HEMATOCRIT / HEMOGLOBIN / LEUKOCYTE COUNT / LYMPHOCYTE / MEAN CORPUSCULAR HEMOGLOBIN / MEAN CORPUSCULAR HEMOGLOBIN CONCENTRATION / MEAN CORPUSCULAR VOLUME / MONOCYTE / NEUTROPHIL / PLATELET COUNT: tissue Blood; for ALANINE AMINOTRANSFERASE / ALBUMIN / ALKALINE PHOSPHATASE / ASPARTATE AMINOTRANSFERASE / BLOOD UREA NITROGEN / CHLORIDE / CHOLESTEROL / CREATINE PHOSPHOKINASE / CREATININE / GLUCOSE / PHOSPHORUS / POTASSIUM / SODIUM / TOTAL BILIRUBIN / TOTAL PROTEIN: tissue Plasma
# [1] = 0 mg/kg, 72 h, dose level Control, time 3 day
# [2] = 0 mg/kg, 120 h, dose level Control, time 5 day
# [3] = 570 mg/kg, 72 h, dose level High, time 3 day
# [4] = 570 mg/kg, 120 h, dose level High, time 5 day
smiles,measurement,setting,value
COc1ccc2c(c1OC)C(=O)O[C@@H]2[C@H]1c2c(cc3c(c2OC)OCO3)CCN1C [NOSCAPINE],BASOPHIL,[1],0.68%
same,EOSINOPHIL,[1],0.46%
same,ERYTHROCYTE COUNT,[1],7.15 x10E6/uL
same,HEMATOCRIT,[1],45.44%
same,HEMOGLOBIN,[1],14.1 G/DL
same,LEUKOCYTE COUNT,[1],9.78 x10E3/uL
same,LYMPHOCYTE,[1],84.44%
same,MEAN CORPUSCULAR HEMOGLOBIN,[1],19.72 pg
same,MEAN CORPUSCULAR HEMOGLOBIN CONCENTRATION,[1],31 G/DL
same,MEAN CORPUSCULAR VOLUME,[1],63.66 fL
same,MONOCYTE,[1],2.14%
same,NEUTROPHIL,[1],11.16%
same,PLATELET COUNT,[1],1378.2 x10E3/uL
same,ALANINE AMINOTRANSFERASE,[1],42.33 u/L
same,ALBUMIN,[1],3.8 G/DL
same,ALKALINE PHOSPHATASE,[1],388.17 u/L
same,ASPARTATE AMINOTRANSFERASE,[1],68 u/L
same,BLOOD UREA NITROGEN,[1],16.17 mg/dL
same,CHLORIDE,[1],96.67 MEQ/L
same,CHOLESTEROL,[1],71 mg/dL
same,CREATINE PHOSPHOKINASE,[1],156.17 u/L
same,CREATININE,[1],0.57 mg/dL
same,GLUCOSE,[1],193.67 mg/dL
same,PHOSPHORUS,[1],11.43 mg/dL
same,POTASSIUM,[1],7 MEQ/L
same,SODIUM,[1],140.33 MEQ/L
same,TOTAL BILIRUBIN,[1],0.48 mg/dL
same,TOTAL PROTEIN,[1],6.8 G/DL
same,BASOPHIL,[2],1.47%
same,EOSINOPHIL,[2],1%
same,ERYTHROCYTE COUNT,[2],7.12 x10E6/uL
same,HEMATOCRIT,[2],45.47%
same,HEMOGLOBIN,[2],14.1 G/DL
same,LEUKOCYTE COUNT,[2],11.38 x10E3/uL
same,LYMPHOCYTE,[2],82.57%
same,MEAN CORPUSCULAR HEMOGLOBIN,[2],19.82 pg
same,MEAN CORPUSCULAR HEMOGLOBIN CONCENTRATION,[2],31.02 G/DL
same,MEAN CORPUSCULAR VOLUME,[2],63.88 fL
same,MONOCYTE,[2],2.2%
same,NEUTROPHIL,[2],11.97%
same,PLATELET COUNT,[2],1267 x10E3/uL
same,ALANINE AMINOTRANSFERASE,[2],38 u/L
same,ALBUMIN,[2],3.72 G/DL
same,ALKALINE PHOSPHATASE,[2],391 u/L
same,ASPARTATE AMINOTRANSFERASE,[2],65.83 u/L
same,BLOOD UREA NITROGEN,[2],14.17 mg/dL
same,CHLORIDE,[2],107.67 MEQ/L
same,CHOLESTEROL,[2],61 mg/dL
same,CREATINE PHOSPHOKINASE,[2],148.33 u/L
same,CREATININE,[2],0.57 mg/dL
same,GLUCOSE,[2],177.17 mg/dL
same,PHOSPHORUS,[2],12.07 mg/dL
same,POTASSIUM,[2],7.2 MEQ/L
same,SODIUM,[2],151.5 MEQ/L
same,TOTAL BILIRUBIN,[2],0.58 mg/dL
same,TOTAL PROTEIN,[2],6.72 G/DL
same,BASOPHIL,[3],0.35%
same,EOSINOPHIL,[3],0.35%
same,ERYTHROCYTE COUNT,[3],7.71 x10E6/uL
same,HEMATOCRIT,[3],48.95%
same,HEMOGLOBIN,[3],15.2 G/DL
same,LEUKOCYTE COUNT,[3],9.57 x10E3/uL
same,LYMPHOCYTE,[3],82.8%
same,MEAN CORPUSCULAR HEMOGLOBIN,[3],19.7 pg
same,MEAN CORPUSCULAR HEMOGLOBIN CONCENTRATION,[3],31.05 G/DL
same,MEAN CORPUSCULAR VOLUME,[3],63.4 fL
same,MONOCYTE,[3],3.35%
same,NEUTROPHIL,[3],12%
same,PLATELET COUNT,[3],1473 x10E3/uL
same,ALANINE AMINOTRANSFERASE,[3],27.5 u/L
same,ALBUMIN,[3],3.9 G/DL
same,ALKALINE PHOSPHATASE,[3],381.5 u/L
same,ASPARTATE AMINOTRANSFERASE,[3],56 u/L
same,BLOOD UREA NITROGEN,[3],17.5 mg/dL
same,CHLORIDE,[3],96 MEQ/L
same,CHOLESTEROL,[3],131 mg/dL
same,CREATINE PHOSPHOKINASE,[3],176 u/L
same,CREATININE,[3],0.45 mg/dL
same,GLUCOSE,[3],166 mg/dL
same,PHOSPHORUS,[3],12.8 mg/dL
same,POTASSIUM,[3],6.5 MEQ/L
same,SODIUM,[3],140.5 MEQ/L
same,TOTAL BILIRUBIN,[3],0.55 mg/dL
same,TOTAL PROTEIN,[3],7.25 G/DL
same,BASOPHIL,[4],1.17%
same,EOSINOPHIL,[4],0.53%
same,ERYTHROCYTE COUNT,[4],7.1 x10E6/uL
same,HEMATOCRIT,[4],42.8%
same,HEMOGLOBIN,[4],13.67 G/DL
same,LEUKOCYTE COUNT,[4],9.28 x10E3/uL
same,LYMPHOCYTE,[4],75.47%
same,MEAN CORPUSCULAR HEMOGLOBIN,[4],19.27 pg
same,MEAN CORPUSCULAR HEMOGLOBIN CONCENTRATION,[4],31.97 G/DL
same,MEAN CORPUSCULAR VOLUME,[4],60.33 fL
same,MONOCYTE,[4],2.07%
same,NEUTROPHIL,[4],19.87%
same,PLATELET COUNT,[4],1766.33 x10E3/uL
same,ALANINE AMINOTRANSFERASE,[4],36 u/L
same,ALBUMIN,[4],3.7 G/DL
same,ALKALINE PHOSPHATASE,[4],318.5 u/L
same,ASPARTATE AMINOTRANSFERASE,[4],57 u/L
same,BLOOD UREA NITROGEN,[4],13.5 mg/dL
same,CHLORIDE,[4],106 MEQ/L
same,CHOLESTEROL,[4],100 mg/dL
same,CREATINE PHOSPHOKINASE,[4],142 u/L
same,CREATININE,[4],0.45 mg/dL
same,GLUCOSE,[4],188 mg/dL
same,PHOSPHORUS,[4],12.45 mg/dL
same,POTASSIUM,[4],7 MEQ/L
same,SODIUM,[4],149 MEQ/L
same,TOTAL BILIRUBIN,[4],0.2 mg/dL
same,TOTAL PROTEIN,[4],6.75 G/DL
